Experimental data taken from ChEMBL document CHEMBL4732143 (Eur J Med Chem, 2021).

Legend:
[1] = target: T1, Sphingosine kinase 2 (Homo sapiens) (UniProt Q9NRA0); experiment: Inhibition of recombinant human Sphk2 expressed in baculovirus infected Sf9 insect cells assessed as residual activity at 0.3 uM using d-erythro-sphingosine as substrate measured after 20 mins in presence of [gamma-32P]ATP by liquid scintillation counting analysis relative to control
T1 sequence (whole entry): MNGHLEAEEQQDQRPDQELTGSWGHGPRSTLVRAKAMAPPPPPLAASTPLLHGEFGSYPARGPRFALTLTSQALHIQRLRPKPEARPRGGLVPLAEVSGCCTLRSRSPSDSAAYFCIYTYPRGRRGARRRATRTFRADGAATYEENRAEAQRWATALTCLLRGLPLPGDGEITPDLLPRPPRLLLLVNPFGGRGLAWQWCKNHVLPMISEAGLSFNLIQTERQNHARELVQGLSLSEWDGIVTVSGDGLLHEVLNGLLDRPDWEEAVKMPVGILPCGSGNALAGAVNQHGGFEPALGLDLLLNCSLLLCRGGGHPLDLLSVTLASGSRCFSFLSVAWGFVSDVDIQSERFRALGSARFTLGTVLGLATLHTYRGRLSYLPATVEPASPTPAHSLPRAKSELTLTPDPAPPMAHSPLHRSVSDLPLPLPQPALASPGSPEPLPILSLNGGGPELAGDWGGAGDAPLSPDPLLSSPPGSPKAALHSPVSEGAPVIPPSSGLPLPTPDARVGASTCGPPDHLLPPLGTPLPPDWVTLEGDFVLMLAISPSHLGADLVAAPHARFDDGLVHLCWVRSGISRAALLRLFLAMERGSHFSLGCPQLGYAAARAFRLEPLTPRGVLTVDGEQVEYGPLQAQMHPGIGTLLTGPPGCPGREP

[2] = target: T2, Sphingosine kinase 2 (Homo sapiens, UniProt Q9NRA0); experiment: Inhibition of recombinant human Sphk2 expressed in baculovirus infected Sf9 insect cells using d-erythro-sphingosine as substrate measured after 20 mins in presence of [gamma-32P]ATP by liquid scintillation counting analysis
T2 sequence (Q9NRA0 whole entry): T1 sequence (whole entry)

[3] = target: T1, Sphingosine kinase 2 (Homo sapiens); experiment: Inhibition of recombinant human Sphk2 expressed in yeast strain KYA1 assessed as increase in yeast growth measured after 24 hrs
[4] = target: T1, Sphingosine kinase 2 (Homo sapiens); experiment: Inhibition of Sphk2 in human U-937 cells using FTY720 as substrate measured after 2 hrs by LC-MS analysis; format: cell-based; conditions: dose 0.1-1 µM

How did the Activity [1] turn out when `CCCCCCCCCCn1ccc2c(-c3noc([C@@H]4CCCN4C(=N)N)n3)cccc21` was run?
Its Activity is 64%.

Which Activity [1] does the source give for `CCCCCCCCCCn1ccc2ccc(-c3noc([C@@H]4CCCN4C(=N)N)n3)cc21` here?
Its Activity is 68%.

With `CCCCCCn1ccc2cc(-c3noc([C@@H]4CCCN4C(=N)N)n3)ccc21` as the compound, how does the Activity [1] read?
Its Activity is 72%.

With `CCCCCCCCCn1ccc2c(-c3noc([C@@H]4CCCN4C(=N)N)n3)cccc21` as the compound, how does the Activity [1] read?
Its Activity is 68%.

`CCCCCCCCCCn1cc(-c2noc([C@@H]3CCCN3C(=N)N)n2)c2ccccc21` was tested. Which Activity [1] did it give?
The Activity was 47%.

And the Ki [2]?
The Ki was 300 nM.

`CCCCCCCCn1ccc2c(-c3noc([C@@H]4CCCN4C(=N)N)n3)cccc21` was tested. Which Activity [1] did it give?
The Activity was 84%.

Which Activity [1] does the source give for `CCCCCCCCCn1ccc2cc(-c3noc([C@@H]4CCCN4C(=N)N)n3)ccc21` here?
The Activity was 25%.

What about the inhibition [3] of the same compound?
The inhibition was “Dose-dependent effect”.

What about the inhibition [4] of the same compound?
The inhibition was “Dose-dependent effect”.

And the Ki [2]?
The Ki was 90 nM.

For `CCCCCCCn1cc(-c2noc([C@@H]3CCCN3C(=N)N)n2)c2ccccc21`, which Activity [1] is on record?
Its Activity is 96%.

Which Activity [1] does the source give for `CCCCCCCCn1ccc2cc(-c3noc([C@@H]4CCCN4C(=N)N)n3)ccc21` here?
The Activity was 87%.

For `CCCCCCCCCn1ccc2ccc(-c3noc([C@@H]4CCCN4C(=N)N)n3)cc21`, which Activity [1] is on record?
Its Activity is 79%.

With `CCCCCCCn1ccc2cc(-c3noc([C@@H]4CCCN4C(=N)N)n3)ccc21` as the compound, how does the Activity [1] read?
Its Activity is 93%.

For `CCCCCCCCCCCn1cc(-c2noc([C@@H]3CCCN3C(=N)N)n2)c2ccccc21`, which Activity [1] is on record?
The Activity was 79%.

With `CCCCCCCCCn1cc(-c2noc(C[C@@H]3CCCN3C(=N)N)n2)c2ccccc21` as the compound, how does the Activity [1] read?
The Activity was 98%.

How did the Activity [1] turn out when `CCCCCCCCCn1cc(-c2noc([C@@H]3CCCN3C(=N)N)n2)c2ccccc21` was run?
Its Activity is 59%.

What does the source list for `CCCCOc1ccc2cc(-c3noc([C@@H]4CCCN4C(=N)N)n3)ccc2c1`?
Activity [1]: 95%; Ki [2]: 980 nM

How did the Activity [1] turn out when `CCCCCCCCCCn1ccc2cc(-c3noc([C@@H]4CCCN4C(=N)N)n3)ccc21` was run?
The Activity was 31%.

And the Ki [2]?
The Ki was 120 nM.

`CCCCCCCCn1ccc2ccc(-c3noc([C@@H]4CCCN4C(=N)N)n3)cc21` was tested. Which Activity [1] did it give?
The Activity was 93%.

With `CCCCCCCn1ccc2c(-c3noc([C@@H]4CCCN4C(=N)N)n3)cccc21` as the compound, how does the Activity [1] read?
The Activity was 89%.

How did the Activity [1] turn out when `CCCCCCCCCCCCn1cc(-c2noc([C@@H]3CCCN3C(=N)N)n2)c2ccccc21` was run?
Its Activity is 46%.

What about the Ki [2] of the same compound?
Its Ki is 290 nM.

Which Activity [1] does the source give for `CCCCCCCn1ccc2ccc(-c3noc([C@@H]4CCCN4C(=N)N)n3)cc21` here?
Its Activity is 103%.

With `CCCCCCCCn1cc(-c2noc([C@@H]3CCCN3C(=N)N)n2)c2ccccc21` as the compound, how does the Activity [1] read?
Its Activity is 73%.
